Patent US20250179073A1, “TRICYCLIC HETEROCYCLE COMPOUNDS AS IAP ANTAGONISTS” (Ascentage Pharma (Suzhou) Co., Ltd., priority 2022, published 2025)

System: MDA-MB-231 cells
Assay: Cell proliferation assay (CellTiter-Glo), MDA-MB-231
Assay type: cell-based
Details: 72 h treatment, Celltiter-Glo luminescence
Description: Example 238: Cell Proliferation Assay
MDA-MB-231 and EVSA-T cells (10000 cells/well) were plated onto 96-well plates (Corning, Cat #3917) in 95 μL of medium (RPMI-1640 containing 10% FBS and MEM containing 10% FBS, respectively). Compounds with various concentrations ([…]) were added to the wells. After treatment for 72 h, 30 μL of Celltiter-Glo reagent (Promega, Cat #G7573) was added and incubated at room temperature for 15 min, then the luminescent signal was determined using a microplate reader (Biotek, SynergyH1). The inhibitor dose-response curves were analyzed using normalized IC50 regression curve fitting with control based normalization.

Row | IC50 | SMILES
1 | 530 nM | C[C@@H]1CN(CC(=O)N2CC(C)(C)c3c2cc(Cc2ccc(F)cc2)c2nc(N4C[C@@H](O)[C@H](O)C4)nn32)[C@@H](CN2CCOC[C@H]2C)CN1 [Compound 226, 1-(2-((3R,4R)-3,4-dihydroxypyrrolidin-1-yl)-4-(4-fluorobenzyl)-8,8-dimethyl-7,8-dihydro-6H-pyrrolo[2,3-e][1,2,4]triazolo[1,5-a]pyridin-6-yl)-2-((2R,5R)-5-methyl-2-(((R)-3-methylmorpholino)methyl)piperazin-1-yl)ethan-1-one]

Same assay, conditions: Homo sapiens, MDA-MB-231, 72 h, 72 h treatment, Celltiter-Glo luminescence

Row | SMILES | IC50
2 | C[C@@H]1CN(CC(=O)N2CC(C)(C)c3c2cc(Cc2ccc(F)cc2)c2nc(C(F)(F)F)cn32)[C@@H](CN2[C@H](C)COC[C@@H]2C)CN1 [Compound 173, 2-((2R,5R)-2-(((3S,5R)-3,5-dimethylmorpholino)methyl)-5-methylpiperazin-1-yl)-1-(4-(4-fluorobenzyl)-8,8-dimethyl-2-(trifluoromethyl)-7,8-dihydro-6H-imidazo[1,2-a]pyrrolo[2,3-e]pyridin-6-yl)ethan-1-one] | 530 nM
3 | C[C@@H]1CN(CC(=O)N2CC(C)(C)c3c2cc(Cc2ccc(F)cc2F)c2nncn32)[C@@H](CN2CCOC[C@H]2C)CN1 [Compound 155, 1-(4-(2,4-difluorobenzyl)-8,8-dimethyl-7,8-dihydro-6H-pyrrolo[2,3-e][1,2,4]triazolo[4,3-a]pyridin-6-yl)-2-((2R,5R)-5-methyl-2-(((R)-3-methylmorpholino)methyl)piperazin-1-yl)ethan-1-one] | 720 nM
4 | C[C@@H]1CN(CC(=O)N2CC(C)(C)c3c2cc(Cc2ccc(F)cc2)c2nn(CC(C)(C)O)c(=O)n32)[C@@H](CN2C3COCC2C3)CN1 [Compound 289, 6-(2-((2R,5R)-2-((3-oxa-6-azabicyclo[3.1.1]heptan-6-yl)methyl)-5-methylpiperazin-1-yl)acetyl)-4-(4-fluorobenzyl)-2-(2-hydroxy-2-methylpropyl)-8,8-dimethyl-2,6,7,8-tetrahydro-1H-pyrrolo[2,3-e][1,2,4]triazolo[4,3-a]pyridin-1-one] | 1700 nM
5 | C[C@@H]1CN(CC(=O)N2CC(C)(C)c3c2cc(Cc2ccc(F)cc2)c2nc(=O)n(C)n32)[C@@H](CN2CCOC[C@H]2C)CN1 [compound 127, 4-(4-fluorobenzyl)-1,8,8-trimethyl-6-(2-((2R,5R)-5-methyl-2-(((R)-3-methylmorpholino)methyl)piperazin-1-yl)acetyl)-7,8-dihydro-1H-pyrrolo[2,3-e][1,2,4]triazolo[1,5-a]pyridin-2(6H)-one] | 3080 nM
6 | C[C@@H]1CN(CC(=O)N2CC(C)(C)c3c2cc(Cc2ccc(F)cc2)c2nn(Cc4ncn(C)n4)c(=O)n32)[C@@H](CN2CCOC[C@H]2C)CN1 [Compound 232, 4-(4-fluorobenzyl)-8,8-dimethyl-2-((1-methyl-1H-1,2,4-triazol-3-yl)methyl)-6-(2-((2R,5R)-5-methyl-2-(((R)-3-methylmorpholino)methyl)piperazin-1-yl)acetyl)-2,6,7,8-tetrahydro-1H-pyrrolo[2,3-e][1,2,4]triazolo[4,3-a]pyridin-1-one] | 330 nM
7 | CNC(=O)c1nc2c(Cc3ccc(F)cc3)cc3c(n2n1)C(C)(C)CN3C(=O)CN1C[C@@H](C)NC[C@@H]1CN1CCOC[C@H]1C [Compound 255, 4-(4-fluorobenzyl)-N,8,8-trimethyl-6-(2-((2R,5R)-5-methyl-2-(((R)-3-methylmorpholino)methyl)piperazin-1-yl)acetyl)-7,8-dihydro-6H-pyrrolo[2,3-e][1,2,4]triazolo[1,5-a]pyridine-2-carboxamide] | 580 nM
8 | C[C@@H]1CN(CC(=O)N2CC(C)(C)c3c2cc(Cc2ccc(F)cc2)c2scnc32)[C@@H](CN2CCOC[C@H]2C)CN1 [Example 28, 1-(4-(4-fluorobenzyl)-8,8-dimethyl-7,8-dihydro-6H-thiazolo[4,5-e]indol-6-yl)-2-((2R,5R)-5-methyl-2-(((R)-3-methylmorpholino)methyl)piperazin-1-yl)ethan-1-one] | 330 nM
9 | C[C@@H]1CN(CC(=O)N2CC(C)(C)c3c2cc(Cc2ccc(F)cc2)c2nc(=O)[nH]n32)[C@@H](CN2CCOC[C@H]2C)CN1 [Compound 131, 4-(4-fluorobenzyl)-8,8-dimethyl-6-(2-((2R,5R)-5-methyl-2-(((R)-3-methylmorpholino)methyl)piperazin-1-yl)acetyl)-7,8-dihydro-1H-pyrrolo[2,3-e][1,2,4]triazolo[1,5-a]pyridin-2(6H)-one] | 2740 nM
10 | C[C@@H]1CN(CC(=O)N2CC(C)(C)c3c2cc(Cc2ccc(F)cc2)c2nc(N(S(C)(=O)=O)S(C)(=O)=O)nn32)[C@@H](CN2CCOC[C@H]2C)CN1 [Example 16, N-(4-(4-fluorobenzyl)-8,8-dimethyl-6-(2-((2R,5R)-5-methyl-2-(((R)-3-methylmorpholino)methyl)piperazin-1-yl)acetyl)-7,8-dihydro-6H-pyrrolo[2,3-e][1,2,4]triazolo[1,5-a]pyridin-2-yl)-N-(methylsulfonyl)methanesulfonamide] | 6260 nM

Results, then the compound that gave them:

Row | IC50 | SMILES
11 | 330 nM | C[C@@H]1CN(CC(=O)N2CC(C)(C)c3c2cc(Cc2ccc(F)cc2)c2nc(C(F)(F)F)cn32)[C@@H](CN2CCOC[C@H]2CO)CN1 [Compound 160, 1-(4-(4-fluorobenzyl)-8,8-dimethyl-2-(trifluoromethyl)-7,8-dihydro-6H-imidazo[1,2-a]pyrrolo[2,3-e]pyridin-6-yl)-2-((2R,5R)-2-((3-(hydroxymethyl)morpholino)methyl)-5-methylpiperazin-1-yl)ethan-1-one]
12 | 320 nM | C[C@@H]1CN(CC(=O)N2CC(C)(C)c3c2cc(Cc2ccc(F)cc2)c2nc(C(F)(F)F)cn32)C(Cn2ccnc2C(F)(F)F)CN1 (stereo in doubt) [Compound 177, 1-(4-(4-fluorobenzyl)-8,8-dimethyl-2-(trifluoromethyl)-7,8-dihydro-6H-imidazo[1,2-a]pyrrolo[2,3-e]pyridin-6-yl)-2-((2S,5R)-5-methyl-2-((2-(trifluoromethyl)-1H-imidazol-1-yl)methyl)piperazin-1-yl)ethan-1-one]
13 | 200 nM | Cc1nc(CO)c2c(Cc3ccc(F)cc3)cc3c(n12)C(C)(C)CN3C(=O)CN1C[C@@H](C)NC[C@@H]1CN1CCOC[C@H]1C [Compound 125, 1-(4-(4-fluorobenzyl)-3-(hydroxymethyl)-1,8,8-trimethyl-7,8-dihydro-6H-imidazo[1,5-a]pyrrolo[2,3-e]pyridin-6-yl)-2-((2R,5R)-5-methyl-2-(((R)-3-methylmorpholino)methyl)piperazin-1-yl)ethan-1-one]
14 | 195 nM | [2H]C([2H])([2H])NC(=O)c1nc2c(Cc3ccc(F)cc3)cc3c(n2n1)C(C)(C)CN3C(=O)CN1C[C@@H](C)NC[C@@H]1CN1CCOC[C@H]1C [Compound 258, 4-(4-fluorobenzyl)-8,8-dimethyl-N-(methyl-d3)-6-(2-((2R,5R)-5-methyl-2-(((R)-3-methylmorpholino)methyl)piperazin-1-yl)acetyl)-7,8-dihydro-6H-pyrrolo[2,3-e][1,2,4]triazolo[1,5-a]pyridine-2-carboxamide]
15 | 190 nM | C[C@@H]1CN(CC(=O)N2CC(C)(C)c3c2cc(N2CCCc4cc(F)ccc42)c2ncnn32)[C@@H](CN2CCOC[C@H]2C)CN1 [Compound 168, 1-(4-(6-fluoro-3,4-dihydroquinolin-1(2H)-yl)-8,8-dimethyl-7,8-dihydro-6H-pyrrolo[2,3-e][1,2,4]triazolo[1,5-a]pyridin-6-yl)-2-((2R,5R)-5-methyl-2-(((R)-3-methylmorpholino)methyl)piperazin-1-yl)ethan-1-one]
16 | 180 nM | C[C@@H]1CN(CC(=O)N2CC(C)(C)c3c2cc(Cc2ccc(F)cc2)c2nc(N4CCNC(=O)C4)nn32)[C@@H](CN2CCOC[C@H]2C)CN1 [Compound 195, 4-(4-(4-fluorobenzyl)-8,8-dimethyl-6-(2-((2R,5R)-5-methyl-2-(((R)-3-methylmorpholino)methyl)piperazin-1-yl)acetyl)-7,8-dihydro-6H-pyrrolo[2,3-e][1,2,4]triazolo[1,5-a]pyridin-2-yl)piperazin-2-one]
17 | 140 nM | C[C@@H]1CN(CC(=O)N2CC(C)(C)c3c2cc(Cc2ccc(F)cc2)c2cnc(C4CCOCC4)n32)[C@@H](CN2CCOC[C@H]2C)CN1 [Example 7, 1-(4-(4-fluorobenzyl)-8,8-dimethyl-1-(tetrahydro-2H-pyran-4-yl)-7,8-dihydro-6H-imidazo[1,5-a]pyrrolo[2,3-e]pyridin-6-yl)-2-((2R,5R)-5-methyl-2-(((R)-3-methylmorpholino)methyl)piperazin-1-yl)ethan-1-one]
18 | 70 nM | C[C@@H]1CN(CC(=O)N2CC(C)(C)c3c2cc(Cc2ccc(F)cc2)c2nc(S(C)(=O)=O)nn32)[C@@H](CN2CCOC[C@H]2C)CN1 [Compound 200, 1-(4-(4-fluorobenzyl)-8,8-dimethyl-2-(methylsulfonyl)-7,8-dihydro-6H-pyrrolo[2,3-e][1,2,4]triazolo[1,5-a]pyridin-6-yl)-2-((2R,5R)-5-methyl-2-(((R)-3-methylmorpholino)methyl)piperazin-1-yl)ethan-1-one]
19 | 26 nM | C[C@@H]1CN(CC(=O)N2CC(C)(C)c3c2cc(Cc2ccc(F)cc2)c2nn(CC(C)(C)O)c(=O)n32)[C@@H](CN2CCC(F)(F)C[C@H]2C)CN1 [Compound 281, 6-(2-((2R,5R)-2-(((R)-4,4-difluoro-2-methylpiperidin-1-yl)methyl)-5-methylpiperazin-1-yl)acetyl)-4-(4-fluorobenzyl)-2-(2-hydroxy-2-methylpropyl)-8,8-dimethyl-2,6,7,8-tetrahydro-1H-pyrrolo[2,3-e][1,2,4]triazolo[4,3-a]pyridin-1-one]
